Laboratory results reported in article PMC12298624, “Anti-Infective Properties, Cytotoxicity, and In Silico ADME Parameters of Novel 4′-(Piperazin-1-yl)benzanilides” (Pharmaceuticals, 2025).
Read-outs that look alike come from different tables or passages of the source.

Legend:
HepG2 cells = assay: Resazurin-based in vitro cytotoxicity with HepG2 cells; format: cell-based, human
Procedure, shortened: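 HepG2 cells, 5000 per well in DMEM with 1% FBS, exposed 48 h at 37° C to ten 3-fold dilutions (100.0–0.005 µM). Then 50 µM resazurin for 3 h, fluorescence read at 555/570 nm, IC50 calculated; doxorubicin as control.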

P. falciparum NF54 [1] = assay: In vitro microplate assay against P. falciparum NF54 (3H-hypoxanthine incorporation); format: cell-based, Plasmodium falciparum; details: chloroquine-sensitive strain NF54, erythrocytic stages; read-out: P.f.NF54 IC50
Procedure, shortened: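 Parasites exposed to eleven 3-fold drug dilutions spanning 100 to 0.002 µg/mL for 48 h, then ^3H-hypoxanthine (0.5 µCi/well) added for a further 24 h. Incorporated radioactivity counted by liquid scintillation after harvesting onto glass fiber filters. IC50 from sigmoidal inhibition curves by linear regression.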

L-6 cells = assay: Resazurin-based in vitro cytotoxicity with L-6 cells; format: cell-based, rat
Procedure, shortened: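 Compounds tested in eleven 3-fold serial dilutions from 100 to 0.002 µg/mL over 70 h incubation. IC50 obtained by linear regression from sigmoidal dose–inhibition curves.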

P. falciparum NF54 [2] = tested on: P. falciparum NF54; set-up: method as in PMID 34832891, PMID 36558954; details: Figure 1, earlier studies; ref [12],[13]; read-out: PfNF54 IC50; cited from earlier work

2-(4-Fluorophenoxy)-N-[4-(pyrrolidin-4-yl)phenyl]-3-(trifluoromethyl)benzamide [Compound 34]
IC50 (HepG2 cells): 39800 nM | IC50 (P. falciparum NF54 [1]): 1680 nM | IC50 (L-6 cells): 185000 nM

CC(C)(C)OC(=O)N1CCN(c2ccc(NC(=O)c3cccc(C(F)(F)F)c3Sc3ccc(F)cc3)cc2)CC1 [derivate III]
IC50 (P. falciparum NF54 [2]): 150 nM

CC(C)(C)C(=O)N1CCN(c2ccc(NC(=O)c3cccc(C(F)(F)F)c3Oc3ccc(F)cc3)cc2)CC1 [derivate II]
IC50 (P. falciparum NF54 [2]): 580 nM

CC(C)(C)OC(=O)N1CCN(c2ccc(NC(=O)c3cccc(C(F)(F)F)c3Nc3ccc(F)cc3)cc2)CC1 [derivate IV]
IC50 (P. falciparum NF54 [2]): 540 nM

CC(C)(C)OC(=O)N1CCN(c2ccc(NC(=O)c3cccc(C(F)(F)F)c3Oc3ccc(F)cc3)cc2)CC1 [derivate I]
IC50 (P. falciparum NF54 [2]): 270 nM
